Test results: patent US20260266848A1, “COMPOSITIONS AND METHODS FOR DIAGNOSING AND TREATING DYSTONIA” (Duke University, priority 2023, published 2026)

Test system: DYT-TOR1A MEF EVs
Test: Quantitative LC-MS/MS proteomics of EVs from drug-treated DYT-TOR1A MEF cultures (ritonavir, salubrinal)
Assay type: cell-based, mouse
Settings: 20 μM, 24 h

SMILES: O=C(/C=C/c1ccccc1)NC(NC(=S)Nc1cccc2cccnc12)C(Cl)(Cl)Cl (stereo not drawn) [salubrinal]
- DYT disrupted proteins (n=363) with significant corrective effects of salubrinal: 13%
- total EV proteins significantly modified by salubrinal (of 1974 proteins): 9%
- Acaa1a (ACAA1) EV abundance Log2_FC (DYT1+Sal/DYT1): −0.8007
- Ano6 (ANO6) EV abundance Log2_FC (DYT1+Sal/DYT1): −0.3535
- Ap1b1 (AP1B1) EV abundance Log2_FC (DYT1+Sal/DYT1): 0.5874
- Ar18b (ARL8B) EV abundance Log2_FC (DYT1+Sal/DYT1): −0.08283
- Bzw2 (BZW2) EV abundance Log2_FC (DYT1+Sal/DYT1): −0.03057
- Cryab (CRYAB) EV abundance Log2_FC (DYT1+Sal/DYT1): 1.025
- DIst (DLST) EV abundance Log2_FC (DYT1+Sal/DYT1): −0.5172
- Ehd4 (EHD4) EV abundance Log2_FC (DYT1+Sal/DYT1): −0.149
- Flna (FLNA) EV abundance Log2_FC (DYT1+Sal/DYT1): −0.07088
- Fscn1 (FSCN1) EV abundance Log2_FC (DYT1+Sal/DYT1): −0.1414
- Gart (GART) EV abundance Log2_FC (DYT1+Sal/DYT1): 0.05776
- Hist1h1b (H1-5) EV abundance Log2_FC (DYT1+Sal/DYT1): −0.1163
- Hnrnpc (HNRNPC) EV abundance Log2_FC (DYT1+Sal/DYT1): −0.2845
- Ipo9 (IPO9) EV abundance Log2_FC (DYT1+Sal/DYT1): 0.3059
- Jam3 (JAM3) EV abundance Log2_FC (DYT1+Sal/DYT1): −0.6132
- Lipg (LIPG) EV abundance Log2_FC (DYT1+Sal/DYT1): −0.4507
- Lrrc59 (LRRC59) EV abundance Log2_FC (DYT1+Sal/DYT1): −0.4226
- Mapk3 (MAPK3) EV abundance Log2_FC (DYT1+Sal/DYT1): 0.6764
- Mars (MARS1) EV abundance Log2_FC (DYT1+Sal/DYT1): −0.1637
- Mrc2 (MRC2) EV abundance Log2_FC (DYT1+Sal/DYT1): 0.01917
- Myh9 (MYH9) EV abundance Log2_FC (DYT1+Sal/DYT1): −0.2742
- Ndnf (NDNF) EV abundance Log2_FC (DYT1+Sal/DYT1): −0.5746
- Pcmt1 (PCMT1) EV abundance Log2_FC (DYT1+Sal/DYT1): 1.133
- Pi4ka (PI4KA) EV abundance Log2_FC (DYT1+Sal/DYT1): −1.039
- Pitpnb (PITPNB) EV abundance Log2_FC (DYT1+Sal/DYT1): 0.09822
- Prpsap2 (PRPSAP2) EV abundance Log2_FC (DYT1+Sal/DYT1): −0.0814
- Psmc5 (PSMC5) EV abundance Log2_FC (DYT1+Sal/DYT1): 0.4458
- Psmd12 (PSMD12) EV abundance Log2_FC (DYT1+Sal/DYT1): −0.203
- Psme4 (PSME4) EV abundance Log2_FC (DYT1+Sal/DYT1): −0.2099
- Ptma (PTMA) EV abundance Log2_FC (DYT1+Sal/DYT1): 1.235
- Rap2b (RAP2B) EV abundance Log2_FC (DYT1+Sal/DYT1): −0.3288
- Rbm3 (RBM3) EV abundance Log2_FC (DYT1+Sal/DYT1): 0.84
- Rhoa (RHOA) EV abundance Log2_FC (DYT1+Sal/DYT1): 0.2121
- Rpl10 (RPL10) EV abundance Log2_FC (DYT1+Sal/DYT1): −0.05107
- Rpl13a (RPL13A) EV abundance Log2_FC (DYT1+Sal/DYT1): −0.1384
- Rps13 (RPS13) EV abundance Log2_FC (DYT1+Sal/DYT1): 0.02541
- Sec31a (SEC31A) EV abundance Log2_FC (DYT1+Sal/DYT1): 0.1051
- Slc2a1 (SLC2A1) EV abundance Log2_FC (DYT1+Sal/DYT1): 0.1088
- Stom (STOM) EV abundance Log2_FC (DYT1+Sal/DYT1): 0.01864
- Tardbp (TARDBP) EV abundance Log2_FC (DYT1+Sal/DYT1): 0.4388
- Tgfb2 (TGFB2) EV abundance Log2_FC (DYT1+Sal/DYT1): 0.3062
- Tln1 (TLN1) EV abundance Log2_FC (DYT1+Sal/DYT1): −0.1915
- Tln2 (TLN2) EV abundance Log2_FC (DYT1+Sal/DYT1): −0.3236
- Tubb1 (TUBB1) EV abundance Log2_FC (DYT1+Sal/DYT1): −0.6949
- Usp7 (USP7) EV abundance Log2_FC (DYT1+Sal/DYT1): 1.365
- Wdr26 (WDR26) EV abundance Log2_FC (DYT1+Sal/DYT1): −0.03177
- Zyx (ZYX) EV abundance Log2_FC (DYT1+Sal/DYT1): −0.2196
- Acaa1a (ACAA1) EV abundance Log2_FC (DYT1/DYT1+Sal (inverse ratio)): 0.8007
- Ano6 (ANO6) EV abundance Log2_FC (DYT1/DYT1+Sal (inverse ratio)): 0.3535
- Ap1b1 (AP1B1) EV abundance Log2_FC (DYT1/DYT1+Sal (inverse ratio)): −0.5874
- Arl8b (ARL8B) EV abundance Log2_FC (DYT1/DYT1+Sal (inverse ratio)): 0.08283
- Bzw2 (BZW2) EV abundance Log2_FC (DYT1/DYT1+Sal (inverse ratio)): 0.03057
- Cryab (CRYAB) EV abundance Log2_FC (DYT1/DYT1+Sal (inverse ratio)): −1.025
- DIst (DLST) EV abundance Log2_FC (DYT1/DYT1+Sal (inverse ratio)): 0.5172
- Ehd4 (EHD4) EV abundance Log2_FC (DYT1/DYT1+Sal (inverse ratio)): 0.149
- Flna (FLNA) EV abundance Log2_FC (DYT1/DYT1+Sal (inverse ratio)): 0.07088
- Fscn1 (FSCN1) EV abundance Log2_FC (DYT1/DYT1+Sal (inverse ratio)): 0.1414
- Gart (GART) EV abundance Log2_FC (DYT1/DYT1+Sal (inverse ratio)): −0.05776
- Hist1h1b (H1-5) EV abundance Log2_FC (DYT1/DYT1+Sal (inverse ratio)): 0.1163
- Hnrnpc (HNRNPC) EV abundance Log2_FC (DYT1/DYT1+Sal (inverse ratio)): 0.2845
- Ipo9 (IPO9) EV abundance Log2_FC (DYT1/DYT1+Sal (inverse ratio)): −0.3059
- Jam3 (JAM3) EV abundance Log2_FC (DYT1/DYT1+Sal (inverse ratio)): 0.6132
- Lipg (LIPG) EV abundance Log2_FC (DYT1/DYT1+Sal (inverse ratio)): 0.4507
- Lrrc59 (LRRC59) EV abundance Log2_FC (DYT1/DYT1+Sal (inverse ratio)): 0.4226
- Mapk3 (MAPK3) EV abundance Log2_FC (DYT1/DYT1+Sal (inverse ratio)): −0.6764
- Mars (MARS1) EV abundance Log2_FC (DYT1/DYT1+Sal (inverse ratio)): 0.1637
- Mrc2 (MRC2) EV abundance Log2_FC (DYT1/DYT1+Sal (inverse ratio)): −0.01917
- Myh9 (MYH9) EV abundance Log2_FC (DYT1/DYT1+Sal (inverse ratio)): 0.2742
- Ndnf (NDNF) EV abundance Log2_FC (DYT1/DYT1+Sal (inverse ratio)): 0.5746
- Pcmt1 (PCMT1) EV abundance Log2_FC (DYT1/DYT1+Sal (inverse ratio)): −1.133
- Pi4ka (PI4KA) EV abundance Log2_FC (DYT1/DYT1+Sal (inverse ratio)): 1.039
- Pitpnb (PITPNB) EV abundance Log2_FC (DYT1/DYT1+Sal (inverse ratio)): −0.09822
- Prpsap2 (PRPSAP2) EV abundance Log2_FC (DYT1/DYT1+Sal (inverse ratio)): 0.0814
- Psmc5 (PSMC5) EV abundance Log2_FC (DYT1/DYT1+Sal (inverse ratio)): −0.4458
- Psmd12 (PSMD12) EV abundance Log2_FC (DYT1/DYT1+Sal (inverse ratio)): 0.203
- Psme4 (PSME4) EV abundance Log2_FC (DYT1/DYT1+Sal (inverse ratio)): 0.2099
- Ptma (PTMA) EV abundance Log2_FC (DYT1/DYT1+Sal (inverse ratio)): −1.235
- Rap2b (RAP2B) EV abundance Log2_FC (DYT1/DYT1+Sal (inverse ratio)): 0.3288
- Rbm3 (RBM3) EV abundance Log2_FC (DYT1/DYT1+Sal (inverse ratio)): −0.84
- Rhoa (RHOA) EV abundance Log2_FC (DYT1/DYT1+Sal (inverse ratio)): −0.2121
- Rpl10 (RPL10) EV abundance Log2_FC (DYT1/DYT1+Sal (inverse ratio)): 0.05107
- Rpl13a (RPL13A) EV abundance Log2_FC (DYT1/DYT1+Sal (inverse ratio)): 0.1384
- Rps13 (RPS13) EV abundance Log2_FC (DYT1/DYT1+Sal (inverse ratio)): −0.02541
- Sec31a (SEC31A) EV abundance Log2_FC (DYT1/DYT1+Sal (inverse ratio)): −0.1051
- Slc2a1 (SLC2A1) EV abundance Log2_FC (DYT1/DYT1+Sal (inverse ratio)): −0.1088
- Stom (STOM) EV abundance Log2_FC (DYT1/DYT1+Sal (inverse ratio)): −0.01864
- Tardbp (TARDBP) EV abundance Log2_FC (DYT1/DYT1+Sal (inverse ratio)): −0.4388
- Tgfb2 (TGFB2) EV abundance Log2_FC (DYT1/DYT1+Sal (inverse ratio)): −0.3062
- Tln1 (TLN1) EV abundance Log2_FC (DYT1/DYT1+Sal (inverse ratio)): 0.1915
- Tln2 (TLN2) EV abundance Log2_FC (DYT1/DYT1+Sal (inverse ratio)): 0.3236
- Tubb1 (TUBB1) EV abundance Log2_FC (DYT1/DYT1+Sal (inverse ratio)): 0.6949
- Usp7 (USP7) EV abundance Log2_FC (DYT1/DYT1+Sal (inverse ratio)): −1.365
- Wdr26 (WDR26) EV abundance Log2_FC (DYT1/DYT1+Sal (inverse ratio)): 0.03177
- Zyx (ZYX) EV abundance Log2_FC (DYT1/DYT1+Sal (inverse ratio)): 0.2196
